Results published in the C3SDB collision cross section collection.
Where “and” joins values, the source holds several entries; their conditions need not be identical. Equal values may be shown once.

How the values were obtained:
[1] = instrument: DT, single field, calibrated with Agilent tune mix (Agilent)
[2] = [M+H]+; instrument: TW; calibrated with polyalanine and drug standards
[3] = instrument: DT, single field, calibrated with ESI Low Concentration Tuning Mix (Agilent)

| SMILES | collision cross section (N2) ([1]; [M-H]-) | collision cross section (N2) ([3]; [M+H]+) | collision cross section (N2) ([3]; [M+Na]+) | collision cross section (N2) ([3]; [M-H]-) | other results |
| --- | --- | --- | --- | --- | --- |
| CCCCCCC(N)C(=O)O (racemic) [DL-2-Aminooctanoic acid] | 141.62 Å² |  |  |  | collision cross section (N2) ([1]; [M+H]+): 147.1 Å² |
| O=C(O)C(O)Cc1ccccc1 (racemic) [DL-3-Phenyllactic acid] | 134.74 Å² |  |  |  | collision cross section (N2) ([1]; [M+H]+): 137.8 Å² |
| N[C@@H](CCSSCC[C@H](N)C(=O)O)C(=O)O (racemic) [DL-Homocystine] |  |  |  |  | collision cross section (N2) ([1]; [M+H]+): 157.9 Å²; collision cross section (N2) ([1]; [M+Na-2H]-): 152.2 Å² |
| COc1cc(C(O)C(=O)O)ccc1O (racemic) [DL-Vanillylmandelic acid] | 140.9 Å² |  |  |  | collision cross section (N2) ([1]; [M+H-H2O]+): 133.3 Å² |
| Cn1c(=O)c2[nH]c(=O)[nH]c2n(C)c1=O [1,3-Dimethyluric acid] | 134.24 Å² |  |  |  | collision cross section (N2) ([1]; [M+H]+): 142.5 Å² |
| Cn1cnc2c(ncn2[C@@H]2O[C@H](CO)[C@@H](O)[C@H]2O)c1=N [1-Methyladenosine] | 159.21 Å² |  |  |  | collision cross section (N2) ([1]; [M+H]+): 164.2 Å² |
| Cn1c(=O)[nH]c2nc[nH]c2c1=O [1-Methylxanthine] | 124.23 Å² |  |  |  |  |
| CCCCCCCCCCCCCCCCCC(=O)OC[C@@H](O)CO [1-Stearoyl-sn-glycerol] |  |  |  |  | collision cross section (N2) ([1]; [M+H-H2O]+): 199.6 Å² |
| Nc1ncnc2c1ncn2[C@H]1C[C@H](O)[C@@H](COP(=O)(O)OP(=O)(O)OP(=O)(O)O)O1 [2'-Deoxyadenosine 5'-triphosphate] | 183.78 Å² |  |  |  |  |
| Nc1nc(=O)c2ncn([C@H]3C[C@H](O)[C@@H](COP(=O)(O)OP(=O)(O)O)O3)c2[nH]1 [2'-Deoxyguanosine 5'-diphosphate] |  |  |  |  | collision cross section (N2) ([1]; [M-H2O-H]-): 174.28 Å² |
| O=c1ccn([C@H]2C[C@H](O)[C@@H](CO)O2)c(=O)[nH]1 [2'-Deoxyuridine] | 145.91 Å² |  |  |  | collision cross section (N2) ([1]; [M+Na]+): 156 Å² |
| O=C(O)c1cccc(O)c1O [2,3-Dihydroxybenzoic acid] | 118.42 Å² |  |  |  |  |
| CCCCCCCC/C=C/CCCCCCCC(=O)O[C@H](COC(=O)CCCCCCCCCCCCCCC)COP(=O)([O-])OCC[N+](C)(C)C [2-Oleoyl-1-palmitoyl-sn-glycero-3-phosphocholine] | 272.17 Å² |  |  |  | collision cross section (N2) ([1]; [M+H]+): 286.7 Å² |
| Nc1ncnc2c1ncn2[C@@H]1O[C@H](COP(=O)(O)OS(=O)(=O)O)[C@@H](OP(=O)(O)O)[C@H]1O [3'-Phosphoadenosine 5'-phosphosulfate] | 192.76 Å² |  |  |  |  |
| O=C(O)CCc1ccc(O)c(O)c1 [3,4-Dihydroxyhydrocinnamic acid] | 133.05 Å² |  |  |  |  |
| O=C(O)C(O)c1ccc(O)c(O)c1 (configuration not stated) [3,4-Dihydroxymandelic acid] | 135 Å² |  |  |  | collision cross section (N2) ([1]; [M+H-H2O]+): 132 Å² |
| Nc1cccc(C(=O)O)c1O [3-Aminosalicylic acid] | 122.07 Å² |  |  |  |  |
| CC(O)(CC(=O)O)CC(=O)O [3-Hydorxy-3-methylglutaric acid] | 123.66 Å² |  |  |  |  |
| O=C(O)Cc1cccc(O)c1 [3-Hydroxyphenylacetic acid] |  |  |  |  | collision cross section (N2) ([1]; [M+Na-2H]-): 135.74 Å² |
| CN1CC(=O)N=C1N [CREATININE] |  | 123.2 Å² | 132.8 Å² | 118.5 Å² | collision cross section (N2) [2]: 120.2 Å² |
| N[C@H]1C(O)O[C@H](CO)[C@@H](O)[C@@H]1O (some centres not stated) [GLUCOSAMINE] |  | 138.1 Å² and 141.4 Å² | 143.5 Å² and 146.5 Å² |  | collision cross section (N2) [2]: 145.2 Å² |
| Nc1ccccc1C(=O)CC(N)C(=O)O (configuration not stated) [KYNURENINE] |  | 149.3 Å² and 149.6 Å² | 152.8 Å² and 153.1 Å² |  | collision cross section (N2) [2]: 146 Å² |
| Cc1ncc(CO)c(CO)c1O [PYRIDOXINE] |  | 134.4 Å² |  | 132.4 Å² | collision cross section (N2) [2]: 132.3 Å² |
| OC[C@H]1O[C@H](OC[C@H]2O[C@H](O[C@]3(CO)O[C@H](CO)[C@@H](O)[C@@H]3O)[C@H](O)[C@@H](O)[C@@H]2O)[C@H](O)[C@@H](O)[C@H]1O [RAFFINOSE] |  |  | 208.9 Å² | 197.3 Å² |  |
| C[C@@H]1OC(O)[C@H](O)[C@H](O)[C@H]1O (some centres not stated) [RHAMNOSE] |  |  | 142.6 Å² |  |  |

| SMILES | collision cross section (N2) ([1]; [M-H]-) | collision cross section (N2) ([3]; [M+H]+) | collision cross section (N2) ([3]; [M+Na]+) | collision cross section (N2) ([3]; [M-H]-) | other results |
| --- | --- | --- | --- | --- | --- |
| Cc1cc2nc3c(=O)[nH]c(=O)nc-3n(C[C@H](O)[C@H](O)[C@H](O)CO)c2cc1C [RIBOFLAVIN] |  | 188.5 Å² |  | 186.1 Å² | collision cross section (N2) [2]: 184.9 Å² |
| OC1OC[C@@H](O)[C@@H](O)[C@H]1O (some centres not stated) [RIBOSE] |  |  | 135.2 Å² |  |  |
| O=C(/C=C/c1ccc(O)c(O)c1)O[C@@H](Cc1ccc(O)c(O)c1)C(=O)O [ROSMARINATE] |  |  |  | 172.7 Å² |  |
| NC(=O)c1ccccc1O [SALICYLAMIDE] |  | 124.4 Å² |  | 121.1 Å² | collision cross section (N2) [2]: 122.2 Å² |
| C[C@@H]1NCCc2cc(O)c(O)cc21 [SALSOLINOL] |  | 142.7 Å² |  | 139.4 Å² |  |
| NCC[Se][Se]CCN [SELENOCYSTAMINE] |  | 135.6 Å² | 138.6 Å² |  |  |
| OC[C@@H](O)[C@@H](O)[C@H](O)[C@@H](O)CO [SORBITOL] |  |  | 142.9 Å² | 131.4 Å² |  |
| OCC1(O)OC[C@H](O)[C@@H](O)[C@@H]1O (some centres not stated) [SORBOSE] |  |  | 139.4 Å² and 143.3 Å² |  |  |
| NCCCCNCCCN [SPERMIDINE] |  | 131.4 Å² and 131.6 Å² | 136.1 Å² and 136.5 Å² |  |  |
| OC[C@H]1O[C@H](OC[C@H]2O[C@H](OC[C@H]3O[C@H](O[C@]4(CO)O[C@H](CO)[C@@H](O)[C@@H]4O)[C@H](O)[C@@H](O)[C@@H]3O)[C@H](O)[C@@H](O)[C@H]2O)[C@H](O)[C@@H](O)[C@H]1O [STACHYOSE] |  |  | 235.1 Å² | 224.1 Å² |  |
| NCCS(=O)(=O)O [TAURINE] |  | 128.2 Å² and 134.2 Å² |  | 118.4 Å² |  |
| CSc1ncnc2nc[nH]c12 [THIOPURINE S-METHYLETHER] |  | 129.8 Å² | 145.1 Å² | 127.7 Å² |  |
| Cc1cn([C@H]2C[C@H](O)[C@@H](CO)O2)c(=O)[nH]c1=O [THYMIDINE] |  |  | 161.6 Å² | 154.1 Å² |  |
| Cc1c[nH]c(=O)[nH]c1=O [THYMINE] |  | 122.1 Å² |  | 119 Å² |  |
| NC(=O)[C@@H]1CCCN1C(=O)[C@H](Cc1cnc[nH]1)NC(=O)[C@@H]1CCC(=O)N1 [THYROTROPIN RELEASING HORMONE] |  | 179.2 Å² | 182.4 Å² | 184.5 Å² | collision cross section (N2) ([3]; [M+Na-2H]-): 183.2 Å² |
| OC[C@H]1O[C@H](O[C@H]2O[C@H](CO)[C@@H](O)[C@H](O)[C@H]2O)[C@H](O)[C@@H](O)[C@@H]1O [TREHALOSE] |  |  | 175.7 Å² | 169.9 Å² | collision cross section (N2) ([3]; [M+K]+): 179.7 Å² |
| CCCCCCCCCCCCCCCCCCCCCCC(=O)[O-] [TRICOSANOATE] |  |  | 204.8 Å² | 196.9 Å² |  |
| N[C@@H](Cc1c[nH]c2ccccc12)C(=O)O [TRYPTOPHAN] |  | 150.1 Å² and 150.3 Å² | 147.6 Å² and 147.7 Å² | 142.3 Å² and 142.5 Å² and 151.5 Å² |  |
| NC(=O)NCCC(=O)O [UREIDOPROPIONATE] |  |  | 132.4 Å² |  |  |
| CC(=O)NC1C(OP(=O)(O)OP(=O)(O)OCC2OC(n3ccc(=O)[nH]c3=O)C(O)C2O)OC(CO)C(O)C1O (configuration not stated) [URIDINE DIPHOSPHATE-N-ACETYLGALACTOSAMINE] |  | 216.2 Å² | 218.1 Å² | 223.9 Å² | collision cross section (N2) ([3]; [M+Na-2H]-): 228.2 Å² |
| CC(=O)N[C@H]1[C@H](OP(=O)(O)OP(=O)(O)OC[C@H]2O[C@@H](n3ccc(=O)[nH]c3=O)[C@H](O)[C@@H]2O)O[C@H](CO)[C@@H](O)[C@@H]1O [URIDINE DIPHOSPHATE-N-ACETYLGLUCOSAMINE] |  | 210.5 Å² | 218.1 Å² | 224 Å² | collision cross section (N2) ([3]; [M+Na-2H]-): 227.9 Å² |
| O=c1ccn([C@@H]2O[C@H](COP(=O)(O)O)[C@@H](O)[C@H]2O)c(=O)[nH]1 [URIDINE MONOPHOSPHATE] |  | 165.7 Å² | 172.3 Å² | 161.2 Å² | collision cross section (N2) ([3]; [M+Na-2H]-): 163.6 Å² |
| O=C(O)/C=C/c1cnc[nH]1 [UROCANATE] |  | 134.6 Å² |  | 120.9 Å² |  |
| CC(C)[C@H](N)C(=O)O [VALINE] |  | 120.9 Å² | 133.4 Å² | 124.3 Å² |  |
| O=c1[nH]c(=O)c2ncn([C@@H]3O[C@H](CO)[C@@H](O)[C@H]3O)c2[nH]1 [XANTHOSINE] |  | 162 Å² | 173.3 Å² | 158.3 Å² | collision cross section (N2) ([3]; [M+K]+): 173 Å²; collision cross section (N2) ([3]; [M+Na-2H]-): 161.9 Å² |
